Legend:
rat cardiomyocytes = test: Intracellular total glutathione (GSH); type: cell-based; conditions: rat cardiomyocytes, after 3 hr
Outline: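 Intracellular total glutathione serves as an oxidative-stress marker in neonatal rat cardiomyocytes exposed to compound in vitro. Cells were harvested for biochemical analysis, and values are means of each exposure group (n=3-7).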

ANP = test: bDNA analysis of mRNA in rat cardiomyocytes; type: cell-based; conditions: rat cardiomyocytes, 1, 3, 6 and 24 hours
Text: (§1) Hypertrophy of the heart ventricular myocytes is regulated by a complex series of intracellular signaling processes involving angiotensin receptors and a series of down stream gene expression changes (Li et al. 2006). Endothelin-1 (ET-1) induces hypertrophy of cardiomyocytes in vivo and in vitro. The mechanism of ET-1-induced hypertrophy consists in the activation of phospholipase C, protein kinase C, extra cellular signal regulated kinase (ERK) and upregulation of cfos and cjun.
(§2) Expression of ANP and BNP mRNA levels was determined by bDNA analysis of mRNA. ET-1 at 0.1 μM was included as a positive control.
(§3) […] Plates were mixed using a DPC 5 Micromix plate shaker at 37° C. for 15-30 minutes to ensure complete lysis of cells. Cell lysis was confirmed using a Nikon inverted microscope. Plates were stored at −80° C. until further analysis.
(§4) bDNA Analysis (Day 1): All solutions were prepared fresh on the day of analysis. Quantigene® bDNA kit components were brought to room temperature prior to use. Chemicals not supplied by Genospectra were obtained from Sigma-Aldrich.
(§5) On the day of analysis, Target Probe Sets were prepared for probe gene sets by adding 25 μL of each probe set component (CE, LE, BL) to 425 μL stock lysis solution using the following probe set concentrations: CE (50 fmol/μL), LE (200 fmol/μL), BL (100 fmol/μL).
(§6) Cell lysis plates were removed from freezer storage and thawed. […] Next, 10 μL of the appropriate Target Probe Set (PS2) was added to each appropriate well of the Capture Plate. Plates were tightly sealed using a plate sealer and incubated at 53° C. for 16-20 hr (overnight).
(§7) bDNA Analysis (Day 2): Wash buffer was prepared in ultra-pure water using 0.1×Saline-Sodium Citrate (SSC) and 0.03% Lithium Lauryl Sulfate (LLS). Amplifier working solution was prepared by adding 10 μL Amplifier to 10 mL Amplifier Diluent per plate.
(§8) Plates were removed from incubator and washed three times with 300 μL wash buffer. Wash buffer was completely removed from plates by aspiration and 100 μL Amplifier working solution was added to each well. Plates were sealed and incubated at 46° C. for 1 hr.
(§9) Label Probe working solution was prepared by adding 10 μL Label Probe to 10 mL Label Probe Diluent per plate. […] Plates were sealed and incubated at 46° C. for 1 hr.

BNP = test: bDNA analysis of mRNA in rat cardiomyocytes; type: cell-based; conditions: rat cardiomyocytes, 1, 3, 6 and 24 hours
Text: as §1, §2, §3, §4, §5, §6, §7, §8, §9

H4IIE cells = test: Intracellular total glutathione (GSH); type: cell-based, rat; conditions: rat, 24 h
Outline: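 Rat hepatoma H4IIE cells were exposed to compound in dosing solutions made in complete culture medium, then harvested for biochemical measurement of intracellular total glutathione as an oxidative-stress marker. Values are exposure-group means, n=3-7.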

human hepatocytes = test: Caspase 3 activity (apoptosis); type: cell-based; conditions: 24 HR
Method: (§10) Caspase 3 Procedure: Caspase 3 activity was determined using a caspase substrate (DEVD, Asp-Glu-Val-Asp) labeled with a fluorescent molecule, 7-Amino4-methylcoumarin (AMC). Caspase 3 cleaves the tetrapeptide between D and AMC, thus releasing the fluorogenic […] AMC. Following the test article exposure to cells in 96-well plates, medium was aspirated from plates and PBS added to each well. Plates were stored at −80° C. to lyse cells and store samples until further analysis. On the day of analysis, plates were removed from freezer and thawed. Caspase buffer with fluorescent substrate was added to each well and incubated at room temperature for 1 hr. AMC release was measured in a spectrofluorometer at an excitation wavelength of 360 nm and an emission wavelength of 460 nm. Values are expressed as relative fluorescent units (RFU).
(§11) Caspase Activity: After sample plates were completely thawed, the caspase substrate buffer mix was added to each plate. Plates were incubated at room temperature for 1hr, shielded from light. Plates were read using a in a spectrofluorometer at an excitation wavelength of 360 nm and an emission wavelength of 460 nm. Values were expressed as relative fluorescent units (RFU).
The apoptosis data is expressed in Table 2 as a ratio of the magnitude of response versus the exposure concentration that produced the response. […]

NRK cells = test: Caspase 3 activity (apoptosis); type: cell-based, rat
Method: as §10, §11
The key to the maximal response data can be found below Table 2.
The third experiment was done to evaluate the specificity and selectivity of the test compound in another non-tumor cell that was derived from normal rat kidney tissue.

[1] = Cell number (propidium iodide); type: cell-based; conditions: neonatal rat cardiomyocytes; rat cardiomyocytes (CM), 24 HR exposure; read-out: Cell Number TC50
Method: One test compound (Compound A) was received as dry powder and evaluated for potential cytotoxicity in a battery of in vitro assays. The compound was tested using both rat cardiomyocytes (CM) from rat neonates and a rat hepatoma (H4IIE) cell line. […] Camptothecin and rotenone were included as positive control compounds. The cell supernatant or the cells themselves were harvested for biochemical analysis. General cytotoxicity was evaluated by monitoring membrane integrity, mitochondrial function, cell proliferation, oxidative stress, and apoptosis. In addition, interaction with P-glycoprotein (PgP) on H4IIE cells and solubility of the test compound were also assessed. The means of each exposure group (n=3-7) were calculated for each assay performed. Intra assay variation well-to-well was typically less than 10% with plate to plate variation typically less than 20%.
Cell Proliferation: Cell proliferation in each well was measured with propidium iodide (PI). […] The 15 nm shift enhances PI fluorescence approximately 20 times while the excitation maxima are shifted 30-40 nm. During method development experiments, it was determined that Triton-X-100 was the best solution to permeabilize the H4IIE cells thereby allowing the PI access to intracellular RNA and DNA. Fluorescence was measured using a Packard Fusion plate reader or equivalent reader at 540 nm excitation and 610 nm emission. […]

Row | Compound | cellular GSH depleted (rat cardiomyocytes) | effect on ANP expression (ANP) | effect on BNP expression (BNP) | CC50 (H4IIE cells) [µM] | Caspase 3 Activity (Index/Dose): Index (human hepatocytes) | Caspase 3 Activity (Index/Dose): Dose (human hepatocytes; controls (μM section)) | Caspase 3 Activity (Index/Dose): Dose (NRK cells; 6 HR) [µM] | Caspase 3 Activity (Index/Dose): Index (NRK cells; 6 HR) | Caspase 3 Activity (Index/Dose): Dose (NRK cells; 24 HR) [µM] | Caspase 3 Activity (Index/Dose): Index (NRK cells; 24 HR) | CC50 at 24 h [1] [µM]
1 | COc1cccc2c1C(=O)c1c(O)c3c(c(O)c1C2=O)C[C@@](O)(C(=O)CO)C[C@@H]3O[C@H]1C[C@H](N)[C@H](O)[C@H](C)O1 [ADRIAMYCIN, Adriamycin] | More than 90% | no effect | no effect | 48 |  |  |  |  |  |  | 
2 | CC[C@@]1(O)C(=O)OCc2c1cc1n(c2=O)Cc2cc3ccccc3nc2-1 [CAMPTOTHECIN, Camptothecin] |  |  |  |  | 3 (400-600 = 3) | 100 | 100 | 3 (40-60 = 3) | 300 | 10 (180-200 = 10) | 293
